Data as given in patent US7875270B2, “Treatment solution and method for preventing posterior capsular opacification by selectively inducing detachment and/or death of lens epithelial cells” (Abbott Medical Optics Inc., priority 2002, dated 2011).

Assays:
in vivo rabbit eyes = assay: In vivo prevention of PCO after cataract operation in rabbit eyes; conditions: DHCT and hyperosmotic NaCl
Protocol: The experimental group includes sixteen rabbit eyes and the control group includes four rabbit eyes. A sham cataract operation is performed on the control animals. The therapy is introduced to the others.
The pupil of each rabbit eye is preoperatively dilated with topical G Phenylephrine 10% (Alcon Labs., Inc., China) and G Cyclopentolate 1% (Bausch & Lomb Pharm., Inc., USA) three times in one hour. The rabbits are anesthetized with ketamine hydrochloride (5 mg kg-1) and xylazine hydrochloride (2 mg kg-1) and placed on an operating table. A topical anesthetic (Dieaine hydrochloride 1%) is used every five minutes on two occasions. A wire lid speculum is placed to hold the eyelids open.
A 3.2 mm scleral tunnel incision into the eye is formed at the temporal limbus. The anterior chamber is maintained with viscoelastic substances and a 4-5 mm diameter continuous curvilinear capsularhexis (CCC) is made on the anterior surface of the lens to open its bag. The treatment solution is first introduced in the LECs by hydrodissection. This ensures that the treatment fluid immediately reaches under the entire anterior capsule/LECs. This process allows for (i) separation of the lens cortex from the capsule and lens epithelium, making removal of the lens cortex easier at a later stage of the operation and (ii) the LECs to be exposed to the treatment for enough time (more than five minutes in total time).
The crystalline lens is then removed using phacoemulsification (Universal II, Alcon Labs., Inc., China). The remaining cortex is aspirated thoroughly and removed as completely as possible to expose the LECs. The lens capsular bag is then partially filed with viscoelastic material in order to maintain its shape. The viscoelastic material should not cover the LECs when the treatment solution is applied.
The treatment is spread over the inner surface of the anterior capsular bag (where the LECs attach). The anterior capsular is continuously filled by using a syringe with a bent needle. Care is taken not to over flow the bag. After the treatment solution covered the capsule bag, it is left for five minutes and then removed using a syringe.
In a few cases, IOLs are inserted. […] At the same time, the incision is enlarged to 6.0 mm and a posterior ocular lens (IOLs) (poly-methyl methacrylate, PMMA) with a 6.5 mm optic is prepared and placed into the capsular bag.
The wound is closed with or without suture.
At the completion of the surgical procedure, each rabbit eye receives subconjunctival dexamethasone (0.25 ml) and gentamicin (0.25 ml). Postoperatively, atropine sulphate 1% ophthalmic solution and neomycin sulphate-polymyxin sulphate-dexamethasone ophthalmic ointment are administered twice daily for three weeks.
The animals are evaluated for three weeks and ten weeks. […] All rabbits are evaluated by slitlamp and scored for ocular responses at 1 day and at 1, 2 and 3 weeks. (See FIG. 17, Table 1.) Three and ten weeks after surgery, the animals are anesthetized using a 2 ml intramuscular injection of 11:1 mixture of ketamine hydrochloride and xylazine 20 mg/ml and then killed with a 2 ml intravenous injection of sodium pentobarbital.
The eye globes are enucleated (some of them fixed in neutral buffered formalin 10% solution for 24 hours) and are bisected coronally just anterior to the equator. Gross examination is performed to assess. PCO development. Photographs are taken from behind (Miyake-Apple posterior photographic technique) by using a digital camera fitted to an operating microscope (Leica/Wild MZ-8, Vashaw Scientific, Inc.).
The extent and severity of PCO is scored (see FIG. 17, Table 1) according to methods reported in the literature. The lens capsules are then fixed and evaluated under a microscope (Olumpus, Optical Co. Ltd.) and photographed with a digital camera.

[1] = test system: human LECs-CCCs freshly removed from cataract operation; assay: In situ treatment of LECs attached to capsulorhexis lens capsule (LECs-CCC); type: cell-based
Protocol: The in situ effects of a treatment solution comprising dihydrochlorothiazide (DHCT) (a cotransport interference agent from the group of the thiazide and related diuretics) and hyperosmotic NaCl on human LECs is examined. The treatment is tested on LECs that are still attached to a continuous curvilinear capsulorhexis lens capsule (LECs-CCC) which are freshly removed from a human cataract operation.
The LECs-CCCs are obtained from a cataract operation and immediately put in freshly prepared Eagle's Minimum Essential Medium (MEM) supplemented with 2 mM glutamine, 25 mmol/L Hepes (pH 7.4) without foetal cow serum (FCS) and is transferred to the laboratory for evaluation. Viable LECs are identified by staining the LECs-CCCs for five minutes with 0.2% Trypan Blue. The sheets containing more than 70% viable LECs are used to assess the efficacy of the treatment. […]
In the first step, a hyperosmotic solution of NaCl is prepared by making a stock solution of 2 M NaCl by adding 58.44 g NaCl (supplied by Sigma Chemical Co., U.S.) to 500 ml dH2O. The desired concentration of osmotic NaCl is prepared by diluting the 2M stock solution with dH2O. For example, to make a hyperosmotic solution of 170 mM NaCl, the 2M NaCl stock solution was diluted with dH2O at a ratio of […]. To make a hyperosmotic solution of 200 mM NaCl, the 2M NaCl stock solution is diluted with dH2O at a ratio of 1 to 9. Final osmolarities (mOsm/kg/H2O) are determined by a freezing point depression method using cryoscopic osmometry.
In the second step, DHCT stock solution is made by adding 25 mg DHCT to 1 ml dH2O. […]
The treatment is applied by exposing the LECs-CCCs for five minutes in a small petri dish containing the treatment solution. The treatment solution is removed after five minutes exposure by a syringe and then the fresh PBS is added in the petri dish to wash away the treatment solution. The LECs-CCCs are washed three times. The changes of the LECS are monitored under a microscope. Microscope photographs are taken at 0, 2 and 5 minutes and after wash.

Compound | Soemmering's ring (in vivo rabbit eyes) | intraocular inflammatory reaction and deposits (in vivo rabbit eyes; 3 and 10 weeks post-treatment) | development of central PCO (CPCO) and peripheral PCO (PPCO) (in vivo rabbit eyes; three or ten weeks post-treatment) | lens epithelial cells in pupil area (phase contrast) (in vivo rabbit eyes; three weeks after surgery, no IOLs insertion) | LEC changes after exposure ([1]; 170 or 200 mM NaCl and 200 or 300 μm DHCT, pH ±7.8, five minutes) | living LECs after wash ([1]; 200 μm DHCT and hyperosmotic ≦200 mM NaCl) | living LECs after rinsing ([1]; 10 or 100 μm gramicidin and PBS) | LEC changes after exposure ([1]; 10 or 100 μm gramicidin and PBS, five minutes)
NS(=O)(=O)c1cc2c(cc1Cl)NCNS2(=O)=O [DHCT, dihydrochlorothiazide] | Most eyes did develop some degree of Soemmering's ring | minimal intraocular inflammatory reaction and deposits on the lens capsule surface | No central PCO(CPCO) (the area within the pupillary area) and peripheral PCO (PPCO) (within 6-6.5 mm outside the pupillary area) is found to have developed | no remaining lens epithelial cells | shrink and gradually large gaps form between the cells. The shrinking cells then gradually round up and burst | no living cells can be observed | – | –
gramicidin | – | – | – | – | – | – | no living cells remain | shrink and large gaps gradually form between the cells. The shrinking cells then gradually round up and burst
